Assay results taken from the supplement of paper PMC10307832.

How the values were obtained:
Experiment in all cases: relative viability (nuclei count vs DMSO), 5 days (fraction); higher = more cells survive
[1] = compound: C1=CC=C2C(=C1)N=C(S2)C(C#N)C3=NC(=NC=C3)NCCC4=CN=CC=C4 + C[C@@H](Oc1cc(-c2cnn(C3CCNCC3)c2)cnc1N)c1c(Cl)ccc(F)c1Cl [Crizotinib] (partner 1 µM)
In short: (§1)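 Each reported value is a median over duplicate plates. It expresses relative viability: treated-well nuclei count divided by vehicle-well nuclei count. Lung cancer cell lines in 1536-well plates were dosed by pin tool a day after seeding, alone with one drug or with a fixed anchor-drug dose plus five library-drug doses (not always all listed) in √10 steps, and nuclei were counted after 5 days.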

[2] = compound: C1=CC=C2C(=C1)N=C(S2)C(C#N)C3=NC(=NC=C3)NCCC4=CN=CC=C4 + CS(=O)(=O)N1CCN(Cc2cc3nc(-c4cccc5[nH]ncc45)nc(N4CCOCC4)c3s2)CC1 [Pictilisib] (partner 1 µM)
In short: as §1

Vandetanib + Vorinostat = compound: COc1cc2/c(=N/c3ccc(Br)cc3F)nc[nH]c2cc1OCC1CCN(C)CC1 [Vandetanib] + O=C(CCCCCCC(=O)Nc1ccccc1)NO [Vorinostat] (partner 1 µM)
In short: as §1

NVP-TAE684 + Palbociclib = compound: COc1cc(N2CCC(N3CCN(C)CC3)CC2)ccc1Nc1ncc(Cl)c(Nc2ccccc2S(=O)(=O)C(C)C)n1 [NVP-TAE684] + CC(=O)c1c(C)c2cnc(Nc3ccc(N4CCNCC4)cn3)nc2n(C2CCCC2)c1=O [Palbociclib] (partner 0.5 µM)
In short: as §1

Cell Line	relative viability ([1]; first compound 0.01581 µM)	relative viability ([1]; first compound 0.05 µM)	relative viability ([1]; first compound 0.1581 µM)	relative viability ([1]; first compound 0.5 µM)	relative viability ([2]; first compound 0.01581 µM)	relative viability ([2]; first compound 0.05 µM)	relative viability ([2]; first compound 0.1581 µM)	relative viability ([2]; first compound 0.5 µM)	relative viability (Vandetanib + Vorinostat; first compound 0.02 µM)	relative viability (Vandetanib + Vorinostat; first compound 0.06325 µM)	relative viability (Vandetanib + Vorinostat; first compound 0.2 µM)	relative viability (Vandetanib + Vorinostat; first compound 0.6325 µM)	relative viability (Vandetanib + Vorinostat; first compound 2 µM)	relative viability (NVP-TAE684 + Palbociclib; first compound 0.2 µM)	relative viability (NVP-TAE684 + Palbociclib; first compound 0.6325 µM)	relative viability (NVP-TAE684 + Palbociclib; first compound 2 µM)	relative viability ([1]; first compound 0.005 µM)	relative viability ([2]; first compound 0.005 µM)
NCI-H2170	1.33	1.1	1.31	1.05	0.298	0.292	0.394	0.32	0.84	0.829	0.816	0.767	0.813	0.33	0.382	0.375		
NCI-H650	0.67	0.568	0.672	0.704	0.845	0.804	0.934	0.901	0.585	0.533	0.514	0.544	0.341	0.313	0.319	0.318	0.484	0.728
NCI-H1437	1.09	0.932	1.09	0.679	0.39	0.398	0.539	0.361	0.824	0.819	0.866	0.937	0.995	0.321	0.291	0.231	0.66	0.474
HCC-366	0.458	0.564	0.844	0.378	0.196	0.181	0.159	0.117	0.277	0.326	0.278	0.31	0.438	0.352	0.4	0.166	0.24	0.138
NCI-H661	1.26	0.99	1.06	0.98	0.358	0.44	0.403	0.211	0.736	0.798	0.783	0.867	0.915	0.423	0.378	0.424	1.24	0.382
HCC-78	0.36	0.325	0.491	0.317	0.167	0.174	0.25	0.14	0.5	0.481	0.418	0.505	0.346	0.487	0.388	0.479	0.325	0.26
HCC-44	0.837	0.826	0.875	0.69	0.509	0.595	0.856	0.593	1.11	1.09	1.21	1.1	1.15	1.01	0.986	0.867	0.753	0.445
NCI-H1355	1.16	1.04	1.03	0.949	0.388	0.365	0.503	0.439	0.603	0.565	0.671	0.624	0.649	0.366	0.368	0.269	1.11	0.535
NCI-H1993	0.844	0.762	0.94	0.832	0.963	0.848	0.64	0.745		0.741	0.797	0.639	0.566	0.437	0.614	0.475	0.684	0.862
NCI-H1734	0.734	0.684	0.693	0.741	0.488	0.406	0.587	0.473	0.87	0.71	0.755	0.852	0.815	0.375	0.324	0.316	0.555	0.439
SK-MES-1	1.12	0.99	1.14	0.902	0.454	0.277	0.352	0.374	1.05	0.916	1.1	0.949	0.795	0.347	0.313	0.296	1.11	0.365
COR-L 105	0.815	0.699	0.628	0.728	0.367	0.384	0.516	0.428	0.922	0.807	0.829	0.822	0.537	0.4	0.393	0.297	0.679	0.345
EMC-BAC-2	0.769	0.704	0.766	0.581	0.512	0.484	0.572	0.501	0.506	0.469	0.431	0.5	0.369	0.483	0.499	0.357	0.645	0.492
NCI-H1915	0.955	0.928	0.994	0.565	0.929	0.923	1.1	0.879	0.497	0.512	0.535	0.532	0.505	0.558	0.525	0.491	0.718	0.933
NCI-H358	0.539	0.533	0.621	0.609	0.295	0.319	0.371	0.342	0.61	0.594	0.668	0.68	0.257	0.125	0.121	0.0895	0.678	0.347
CAL-12T	0.561	0.743	0.766	0.37			0.551	0.375	0.724	0.549	0.67	0.759	0.415	0.357	0.344	0.186	0.48	0.607
NCI-H2085	0.887	0.792	0.825	0.792	0.43	0.39	0.483	0.388	0.836	0.74	0.66	0.773	0.777	0.463	0.512	0.478	0.682	0.43
LCLC-97TM1	0.394	0.368	0.326	0.256	0.179	0.156	0.181	0.236	0.711	0.755	0.719	0.559	0.755	0.251	0.249	0.0774	0.28	0.215
